Counter-ions that a name gives are not always drawn.

T1 sequence (Q12778 whole entry T24A/S256A/S319A): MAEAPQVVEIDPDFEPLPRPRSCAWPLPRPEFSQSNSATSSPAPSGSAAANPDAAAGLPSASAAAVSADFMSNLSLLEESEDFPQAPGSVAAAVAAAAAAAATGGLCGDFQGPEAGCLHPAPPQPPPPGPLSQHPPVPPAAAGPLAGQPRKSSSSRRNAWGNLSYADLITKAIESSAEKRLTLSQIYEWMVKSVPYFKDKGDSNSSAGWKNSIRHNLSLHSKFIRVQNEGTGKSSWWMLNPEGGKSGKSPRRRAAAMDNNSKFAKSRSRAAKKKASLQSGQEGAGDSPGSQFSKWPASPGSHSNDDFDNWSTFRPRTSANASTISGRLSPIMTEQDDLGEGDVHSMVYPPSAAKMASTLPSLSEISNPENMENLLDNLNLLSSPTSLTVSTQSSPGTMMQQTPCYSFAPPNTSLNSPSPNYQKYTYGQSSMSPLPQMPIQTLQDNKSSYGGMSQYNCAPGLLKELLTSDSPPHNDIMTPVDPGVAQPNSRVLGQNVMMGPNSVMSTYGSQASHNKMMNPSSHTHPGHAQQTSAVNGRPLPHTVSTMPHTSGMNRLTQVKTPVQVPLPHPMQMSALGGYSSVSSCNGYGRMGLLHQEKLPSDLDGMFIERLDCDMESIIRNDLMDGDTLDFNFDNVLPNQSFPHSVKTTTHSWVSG

This assay concerns the target T1, human FOXO1 (constitutively active form Thr24Ala, Ser256Ala, Ser319Ala) (Homo sapiens, UniProt Q12778, S256A/S319A/T24A).
T1 construct: expressed in transfected cells; host or cells: HEK293 cells transfected with pcDNA3.1 plasmid
The assay is described as follows: FOXO1 inhibitor activity assay: cell-based transcriptional (luciferase) reporter assay in HEK293 cells. The conditions noted are these: HEK293 cells transfected with insulin response element firefly luciferase reporter, FOXO1 and Renilla luciferase; 10-point dose response 50 μM to 2.5 nM; 24 hours. The gist of the method: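 IC50 and maximal inhibition were fitted by 4-parameter logistic regression on normalized firefly/Renilla luciferase ratios. The 0% reference used RFP in place of FOXO1, and the 100% reference was DMSO-only with all plasmids.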
As to `COCCN1CCN(c2ccc(C(=O)Nc3cc(-c4nc5ccccc5[nH]4)[nH]n3)cn2)CC1` [Compound A-142, N-[5-(1H-benzimidazol-2-yl)-1H-pyrazol-3-yl]-6-[4-(2-methoxyethyl)-piperazin-1-yl]pyridine-3-carboxamide], the IC50 is less than 100 nM.

In turn, `CN1CCN(c2ccc(C(=O)Nc3nc(-c4nc5ccccc5[nH]4)n(C)n3)cc2)CC1` [Compound A-241, N-[5-(1H-benzimidazol-2-yl)-1-methyl-1,2,4-triazol-3-yl]-4-(4-methylpiperazin-1-yl)benzamide] registered a half-maximal inhibitory concentration (IC50) of 300 to 1000 nM.

As for `COCCCOc1ccc(C(=O)Nc2cc(-c3nc4cc(OC)ccc4[nH]3)[nH]n2)cc1Cl` [Compound A-58, 3-chloro-N-[5-(5-methoxy-1H-benzimidazol-2-yl)-1H-pyrazol-3-yl]-4-(3-methoxypropoxy)benzamide], the IC50 is less than 100 nM.

As to `C[C@H](CO)Nc1ccc(C(=O)Nc2cc(-c3nc4ccccc4[nH]3)[nH]n2)cn1` [Compound A-63, N-[5-(1H-benzimidazol-2-yl)-1H-pyrazol-3-yl]-6-[[(1R)-2-hydroxy-1-methyl-ethyl]amino]pyridine-3-carboxamide], the 50% inhibitory concentration (IC50) is more than 1000 nM.

The compound `COc1ccc(C(=O)Nc2n[nH]c(-c3nc4ccccc4[nH]3)c2Br)cc1Cl` [Compound A-71, N-[5-(1H-benzimidazol-2-yl)-4-bromo-1H-pyrazol-3-yl]-3-chloro-4-methoxy-benzamide] returned a half-inhibitory concentration (IC50) of 300 to 1000 nM.

For `O=C(O)CN1CCN(c2ccc(C(=O)Nc3cc(-c4nc5ccccc5[nH]4)[nH]n3)cc2)CC1` [Compound A-199, 2-[4-[4-[[5-(1H-benzimidazol-2-yl)-1H-pyrazol-3-yl]carbamoyl]phenyl]-piperazin-1-yl]acetic acid hydrochloride], the IC50 lay within 100 to 300 nM.

`Cc1nc(N2CCN(C3COC3)CC2)ccc1C(=O)Nc1cc(-c2nc3ccccc3[nH]2)n(C)n1` [Compound A-264, N-[5-(1H-benzimidazol-2-yl)-1-methyl-pyrazol-3-yl]-2-methyl-6-[4-(oxetan-3-yl)piperazin-1-yl]pyridine-3-carboxamide] yielded an IC50 of 300 to 1000 nM.

As to `COCCN1CCN(c2ccc(C(=O)Nc3cc(-c4nc5cccc(F)c5[nH]4)n(C)n3)cn2)CC1` [Compound A-154], the 50% inhibitory concentration (IC50) lay within 100 to 300 nM.

Regarding `Cn1nc(NC(=O)c2ccc(N3CCNCC3)cc2)cc1-c1nc2ccccc2[nH]1` [Compound A-217, N-[5-(1H-benzimidazol-2-yl)-1-methyl-pyrazol-3-yl]-4-piperazin-1-yl-benzamide], the IC50 was 100 to 300 nM.

`COc1cc(F)c2[nH]c(-c3cc(NC(=O)c4ccc(N5CCC(OC)CC5)nc4)n[nH]3)nc2c1` [Compound A-193, N-[5-(7-fluoro-5-methoxy-1H-benzimidazol-2-yl)-1H-pyrazol-3-yl]-6-(4-methoxy-1-piperidyl)pyridine-3-carboxamide] displayed a half-maximal inhibitory concentration (IC50) of more than 1000 nM.

`O=C(Nc1cc(-c2nc3ccccc3[nH]2)[nH]n1)c1ccc(N2CCC[C@H]2C(=O)O)nc1` [Compound A-48, (2S)-1-[5-[[5-(1H-benzimidazol-2-yl)-1H-pyrazol-3-yl]carbamoyl]-2-pyridyl]pyrrolidine-2-carboxylic acid]: the concentration for half-maximal inhibition (IC50) is more than 1000 nM.

With `O=C(Nc1cc(-c2nc3ccccc3[nH]2)[nH]n1)c1ccc(N2CCOCC2)nc1` [Compound A-41, N-[5-(1H-benzimidazol-2-yl)-1H-pyrazol-3-yl]-6-morpholino-pyridine-3-carboxamide], the IC50 was less than 100 nM.

Compound `CC(C)C(=O)N1CCN(c2ccc(C(=O)Nc3cc(-c4nc5ccccc5[nH]4)n(C)n3)cn2)CC1` [Compound A-244, N-[5-(1H-benzimidazol-2-yl)-1-methyl-pyrazol-3-yl]-6-[4-(2-methylpropanoyl)piperazin-1-yl]pyridine-3-carboxamide] came in with a half-inhibitory concentration (IC50) of 100 to 300 nM.

Regarding `O=C(Nc1cc(-c2nc3ccccc3[nH]2)[nH]n1)c1ccc(N2CCN(CCO)CC2)nc1` [Compound A-143, N-[5-(1H-benzimidazol-2-yl)-1H-pyrazol-3-yl]-6-[4-(2-hydroxyethyl)-piperazin-1-yl]pyridine-3-carboxamide], the concentration for half-maximal inhibition (IC50) fell in the range of 100 to 300 nM.

For the compound `CCOC(=O)[C@@H]1CCCN1c1ccc(C(=O)Nc2cc(-c3nc4ccccc4[nH]3)[nH]n2)cn1` [Compound A-56, ethyl (2S)-1-[5-[[5-(1H-benzimidazol-2-yl)-1H-pyrazol-3-yl]carbamoyl]-2-pyridyl]pyrrolidine-2-carboxylate], the IC50 is more than 1000 nM.

For `Cn1nc(NC(=O)c2ccc(N3CCN(C4COC4)CC3)nc2)cc1-c1nc2cc(F)ccc2[nH]1` [Compound A-160], the IC50 is 300 to 1000 nM.

Compound `CN1CCN(c2ccc(C(=O)Nc3cc(-c4nc5ccccc5[nH]4)[nH]n3)nn2)CC1` [Compound A-177, N-[5-(1H-benzimidazol-2-yl)-1H-pyrazol-3-yl]-6-(4-methylpiperazin-1-yl)pyridazine-3-carboxamide] came in with an IC50 of more than 1000 nM.

`O=C(O)COc1ccc(C(=O)Nc2cc(-c3nc4ccccc4[nH]3)[nH]n2)cn1` [Compound A-62, 2-[[5-[[5-(1H-benzimidazol-2-yl)-1H-pyrazol-3-yl]carbamoyl]-2-pyridyl]-oxy]acetic acid] registered an IC50 of more than 1000 nM.

Regarding `COCCOc1ccc2[nH]c(-c3cc(NC(=O)c4ccc(OC)c(Cl)c4)n[nH]3)nc2c1` [Compound A-256, 3-chloro-4-methoxy-N-[5-[5-(2-methoxyethoxy)-1H-benzimidazol-2-yl]-1H-pyrazol-3-yl]benzamide], the IC50 is less than 100 nM.

For `COc1ccc(Nc2nccc(-c3nc4ccccc4[nH]3)n2)cc1Cl` [Compound A-92, 4-(1H-benzimidazol-2-yl)-N-(3-chloro-4-methoxy-phenyl)pyrimidin-2-amine], the half-maximal inhibitory concentration (IC50) was more than 1000 nM.

As for `COc1ccc(C(=O)Nc2cc(-c3nc4cc(N5CCOCC5)ccc4[nH]3)[nH]n2)cc1Cl` [Compound A-265, 3-chloro-4-methoxy-N-[15-(5-morpholino-1H-benzimidazol-2-yl)-1H-pyrazol-3-yl]benzamide], the IC50 was less than 100 nM.

Turning to `Cn1nc(NC(=O)c2ccc(N3CCN(C(=O)CN)CC3)nc2)cc1-c1nc2ccccc2[nH]1` [Compound A-289, 6-[4-(2-aminoacetyl)piperazin-1-yl]-N-[5-(1H-benzimidazol-2-yl)-1-methyl-pyrazol-3-yl]pyridine-3-carboxamide], the IC50 was 100 to 300 nM.

Turning to `COc1ccc(C(=O)Nc2cc(-c3nc4cc(F)ccc4[nH]3)n(C)n2)cc1Cl` [Compound A-126, 3-chloro-N-[5-(5-fluoro-1H-benzimidazol-2-yl)-1-methyl-pyrazol-3-yl]-4-methoxy-benzamide], the IC50 was less than 100 nM.

Compound `Cn1nc(NC(=O)c2ccc(N3C[C@H]4COC[C@H]4C3)nc2)cc1-c1nc2ccccc2[nH]1` [Compound A-267, 6-[(3aR,6aS)-1,3,3a,4,6,6a-hexahydrofuro[3,4-c]pyrrol-5-yl]-N-[5-(1H-benzimidazol-2-yl)-1-methyl-pyrazol-3-yl]pyridine-3-carboxamide] returned an IC50 of less than 100 nM.

`COc1ccc(C(=O)Nc2nc(-c3nc4ccccc4[nH]3)n(C)n2)cc1Cl` [Compound A-234, N-[5-(1H-benzimidazol-2-yl)-1-methyl-1,2,4-triazol-3-yl]-3-chloro-4-methoxy-benzamide] registered an IC50 of 300 to 1000 nM.

For `COCC1CN(c2ccc(C(=O)Nc3cc(-c4nc5ccccc5[nH]4)n(C)n3)cn2)C1` [Compound A-272, N-[5-(1H-benzimidazol-2-yl)-1-methyl-pyrazol-3-yl]-6-[3-(methoxymethyl)azetidin-1-yl]pyridine-3-carboxamide], the IC50 was less than 100 nM.

Compound `Cn1nc(NC(=O)c2ccc(N3CCC(O)C3)nc2)cc1-c1nc2ccccc2[nH]1` (stereo in doubt) [Compound A-227, N-[5-(1H-benzimidazol-2-yl)-1-methyl-pyrazol-3-yl]-6-[(3R)-3-hydroxy-pyrrolidin-1-yl]pyridine-3-carboxamide] registered an IC50 of 300 to 1000 nM.

As for `CC(=O)N1CCN(c2ccc(C(=O)Nc3cc(-c4nc5ccccc5[nH]4)n(C)n3)cn2)CC1CO` (stereo not drawn) [Compound A-254, 6-14-acetyl-3-(hydroxymethyl)piperazin-1-yl-N-[5-(1H-benzimidazol-2-yl)-1-methyl-pyrazol-3-yl]pyridine-3-carboxamide], the IC50 was more than 1000 nM.

Consider `O=C(Nc1cc(-c2nc3cc(Br)ccc3[nH]2)[nH]n1)c1ccc(N2CCOCC2)nc1` [Compound A-91, N-[5-(5-bromo-1H-benzimidazol-2-yl)-1H-pyrazol-3-yl]-6-morpholino-pyridine-3-carboxamide], for which the IC50 is more than 1000 nM.

In turn, `O=C(Nc1cc(-c2nc3cc(Cl)ccc3[nH]2)[nH]n1)c1ccc(N2CCOCC2)nc1` [Compound A-88, N-[5-(5-chloro-1H-benzimidazol-2-yl)-1H-pyrazol-3-yl]-6-morpholino-pyridine-3-carboxamide] showed an IC50 of more than 1000 nM.

Turning to `COC1CN(c2ncc(C(=O)Nc3cc(-c4nc5ccccc5[nH]4)[nH]n3)cn2)C1` [Compound A-183, N-[5-(1H-benzimidazol-2-yl)-1H-pyrazol-3-yl]-2-(3-methoxyazetidin-1-yl)pyrimidine-5-carboxamide], the 50% inhibitory concentration (IC50) was more than 1000 nM.

As to `Cn1nc(NC(=O)c2cnc(N3CCC(N4CCOCC4)CC3)nc2)cc1-c1nc2ccccc2[nH]1` [Compound A-206, N-[5-(1H-benzimidazol-2-yl)-1-methyl-pyrazol-3-yl]-2-(4-morpholino-1-piperidyl)pyrimidine-5-carboxamide], the half-maximal inhibitory concentration (IC50) is more than 1000 nM.

`O=C(Nc1cc(-c2nc3ccccc3[nH]2)[nH]n1)c1ccc(N2CC3(COC3)C2)nc1` [Compound A-45, N-[5-(1H-benzimidazol-2-yl)-1H-pyrazol-3-yl]-6-(2-oxa-6-azaspiro[3.3]heptan-6-yl)pyridine-3-carboxamide] showed an IC50 of more than 1000 nM.

For the origin of these results see patent US20230416228A1 (Forkhead Biotherapeutics, Inc., priority 2020, published 2023).
